Measurements as given in ChEMBL document CHEMBL3817831, “Ionophoric polyphenols selectively bind Cu(2+), display potent antioxidant and anti-amyloidogenic properties, and are non-toxic toward Tetrahymena thermophila” (Bioorg Med Chem, 2016).
The source made the active and inactive calls. No cut-off for these calls is given here.

Experiments:
[1] = Antioxidant activity assessed as DPPH free radical scavenging activity after 30 mins by spectrophotometry; assay type: physicochemical
[2] = molecular target: Amyloid-beta precursor protein (Homo sapiens) (UniProt P05067); assay: Induction of preformed self-induced amyloid beta (1 to 40) (unknown origin) fibril aggregation at 100 uM after 4 days by turbidity assay
[3] = Binding affinity to Zn2+ using ZnCl2 at 20 uM after 5 mins by spectrophotometry
[4] = Inhibition of Cu2+-induced amyloid beta (1 to 40) fibril aggregation assessed as remaining fibril aggregates at 100 uM preincubated for 5 mins followed by amyloid beta (1 to 40) addition measured after 7 days at pH 6.60 by thioflavin-T fluorescence assay
[5] = molecular target: Amyloid-beta precursor protein (Homo sapiens) (UniProt P05067); assay: Inhibition of self-induced amyloid beta (1 to 40) (unknown origin) fibril aggregation at 100 uM after 7 to 18 days by turbidity assay
[6] = molecular target: Amyloid-beta precursor protein (Homo sapiens) (UniProt P05067); assay: Inhibition of self-induced amyloid beta (1 to 40) (unknown origin) fibril aggregation assessed as remaining fibril aggregates at 100 uM after 7 days at pH 6.60 by thioflavin-T fluorescence assay
[7] = molecular target: Amyloid-beta precursor protein (Homo sapiens) (UniProt P05067); assay: Inhibition of preformed self-induced amyloid beta (1 to 40) (unknown origin) fibril aggregation assessed as remaining fibril aggregates at 100 uM after 4 days at pH 6.60 by thioflavin-T fluorescence assay
[8] = Inhibition of Cu2+-amyloid beta (1 to 40) catalyzed generation of hydroxyl radical assessed as rate of radical formation per min at 2 equiv preincubated for 1 hr followed by CCA addition measured over 60 mins by CCA based fluorescence assay (reference value: 13 +/- 0.2 a.u.)
[9] = Inhibition of Cu2+-induced amyloid beta (1 to 40) fibril aggregation assessed as remaining fibril aggregates at 100 uM preincubated for 5 mins followed by amyloid beta (1 to 40) addition measured after 3 days at pH 6.60 by thioflavin-T fluorescence assay
[10] = molecular target: Amyloid-beta precursor protein (Homo sapiens) (UniProt P05067); assay: Induction of self-induced amyloid beta (1 to 40) (unknown origin) fibril aggregation at 100 uM after 3 days by turbidity assay
[11] = molecular target: Amyloid-beta precursor protein (Homo sapiens) (UniProt P05067); assay: Inhibition of preformed self-induced amyloid beta (1 to 40) (unknown origin) fibril aggregation assessed as remaining fibril aggregates at 100 uM after 12 days at pH 6.60 by thioflavin-T fluorescence assay
[12] = Toxicity in Tetrahymena thermophila assessed as reduction in cell viability after 48 hrs by MTT assay; assay type: organism-based; settings: Tetrahymena thermophila cells, read-out: LD50
[13] = Inhibition of preformed Cu2+-induced amyloid beta (1 to 40) fibril aggregation assessed as remaining fibril aggregates at 100 uM after 12 days at pH 6.60 by thioflavin-T fluorescence assay
[14] = Induction of Cu2+-induced amyloid beta (1 to 40) fibril aggregation at 100 uM preincubated for 5 mins followed by amyloid beta (1 to 40) addition measured after 3 to 7 days by turbidity assay
[15] = Binding affinity to Cu2+ using CuCl2 at 10 uM after 5 mins by spectrophotometric titration assay
[16] = molecular target: Amyloid-beta precursor protein (Homo sapiens) (UniProt P05067); assay: Inhibition of preformed self-induced amyloid beta (1 to 40) (unknown origin) fibril aggregation at 100 uM after 12 days by turbidity assay relative to control
[17] = Binding affinity to Mg2+ using MgSO4 at 20 uM after 5 mins by spectrophotometry
[18] = Ratio of resveratrol IC50 to compound IC50 for AAPH radical scavenging activity
[19] = Binding affinity to Ca2+ using CaCl2 at 20 uM after 5 mins by spectrophotometry
[20] = Antioxidant activity assessed as AAPH radical scavenging activity preincubated for 30 mins followed by AAPH addition measured after 60 mins by ORAC assay; assay type: physicochemical
[21] = Induction of preformed Cu2+-induced amyloid beta (1 to 40) fibril aggregation at 100 uM after 4 to 12 days by turbidity assay relative to control
[22] = Binding affinity to Cu2+ using CuCl2 after 5 mins by spectrophotometry
[23] = Binding affinity to Mn2+ using MnCl2 at 20 uM after 5 mins by spectrophotometry
[24] = molecular target: Amyloid-beta precursor protein (Homo sapiens) (UniProt P05067); assay: Binding affinity to amyloid beta (1 to 40) (unknown origin) by tyrosine fluorimetric titration assay
[25] = Inhibition of preformed Cu2+-induced amyloid beta (1 to 40) fibril aggregation assessed as remaining fibril aggregates at 100 uM after 4 days at pH 6.60 by thioflavin-T fluorescence assay
[26] = Inhibition of Cu2+-induced amyloid beta (1 to 40) fibril aggregation at 100 uM preincubated for 5 mins followed by amyloid beta (1 to 40) addition measured after 18 days by turbidity assay
[27] = Binding affinity to Fe2+ using FeCl2 at 20 uM after 5 mins by spectrophotometry
[28] = Ratio of resveratrol IC50 to compound IC50 for DPPH free radical scavenging activity
[29] = Inhibition of Cu2+-amyloid beta (1 to 40) catalyzed generation of hydroxyl radical assessed as 7-hrdroxy-CCA formation at 2 equiv preincubated for 1 hr followed by CCA addition measured over 60 mins by fluorescence assay
[30] = molecular target: Amyloid-beta precursor protein (Homo sapiens) (UniProt P05067); assay: Inhibition of self-induced amyloid beta (1 to 40) (unknown origin) fibril aggregation assessed as remaining fibril aggregates at 100 uM after 3 days at pH 6.60 by thioflavin-T fluorescence assay
[31] = Inhibition of Cu2+-induced amyloid beta (1 to 40) aggregation at 100 uM preincubated for 5 mins followed by amyloid beta (1 to 40) addition measured after 18 days at pH 6.60 by thioflavin-T fluorescence assay
[32] = Inhibition of preformed Cu2+-induced amyloid beta (1 to 40) fibril aggregation at 100 uM after 4 to 12 days by turbidity assay relative to control
[33] = Binding affinity to Cu2+ using CuCl2 at 20 uM after 5 mins by spectrophotometric titration assay
[34] = Ratio of ascorbic acid IC50 to compound IC50 for DPPH free radical scavenging activity
[35] = Binding affinity to Cu2+ assessed as compound-metal adduct formation
[36] = Inhibition of preformed Cu2+-induced amyloid beta (1 to 40) fibril aggregation at 100 uM after 12 days by turbidity assay relative to control
[37] = Inhibition of preformed Cu2+-induced amyloid beta (1 to 40) fibril aggregation at 100 uM after 12 days by turbidity assay relative to total turbidity of amyloid beta (1 to 40) aggregates

Chain of Amyloid-beta precursor protein (Homo sapiens) (P05067 whole entry): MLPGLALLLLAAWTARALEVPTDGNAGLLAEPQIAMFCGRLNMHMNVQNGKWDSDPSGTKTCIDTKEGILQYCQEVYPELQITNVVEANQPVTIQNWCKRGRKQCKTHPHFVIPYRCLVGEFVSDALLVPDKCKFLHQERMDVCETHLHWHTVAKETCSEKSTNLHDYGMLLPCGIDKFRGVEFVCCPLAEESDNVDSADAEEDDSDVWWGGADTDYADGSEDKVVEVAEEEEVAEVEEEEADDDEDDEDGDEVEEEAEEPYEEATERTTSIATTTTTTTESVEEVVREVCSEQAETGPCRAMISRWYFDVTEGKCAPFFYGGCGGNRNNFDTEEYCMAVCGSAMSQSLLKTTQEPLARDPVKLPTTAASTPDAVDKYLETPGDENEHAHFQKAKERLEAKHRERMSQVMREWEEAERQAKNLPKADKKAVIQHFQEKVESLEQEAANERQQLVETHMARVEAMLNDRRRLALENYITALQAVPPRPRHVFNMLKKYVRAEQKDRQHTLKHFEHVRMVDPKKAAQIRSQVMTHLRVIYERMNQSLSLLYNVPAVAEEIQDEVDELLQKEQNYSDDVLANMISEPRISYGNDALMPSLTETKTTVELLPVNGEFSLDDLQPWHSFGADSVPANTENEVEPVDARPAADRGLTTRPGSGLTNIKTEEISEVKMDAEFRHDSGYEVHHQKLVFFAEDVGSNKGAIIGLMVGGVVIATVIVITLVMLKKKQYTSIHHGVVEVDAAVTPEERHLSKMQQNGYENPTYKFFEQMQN

| Structure (SMILES) | IC50 [1] [µM] | Activity [3] | Activity [4] [%] | Activity [6] [%] | Activity [7] [%] | Activity [8] [a.u.] | Activity [9] [%] | Activity [11] [%] | LC50 at 48 h [12] [µM] | Activity [17] | Ratio IC50 [18] | Activity [19] | IC50 [20] [µM] | logKa [22] | Activity [23] | Ka [24] [×10⁵ /M] | Activity [27] | Ratio IC50 [28] | inhibition [29] [%] | Activity [30] [%] | other results |
| --- | --- | --- | --- | --- | --- | --- | --- | --- | --- | --- | --- | --- | --- | --- | --- | --- | --- | --- | --- | --- | --- |
| Oc1ccc(/N=C/c2c(O)ccc3ccccc23)c(O)c1 | 13.5 | inactive | 10.9 | 6.21 | 14.4 | 0.03 | 7.85 | 11 | 265 | inactive | 0.5 | inactive | 3.15 | 14.3 | inactive | 2.46 | inactive | 1.3 | 98.5 | 6.51 | Activity [2]: Active; inhibition [5]: Active; Activity [10]: Active; Activity [13]: 47.3%; Activity [14]: 47%; Activity [15]: Active; inhibition [16]: Active; Activity [21]: Active; Activity [25]: 46%; inhibition [26]: Active; inhibition [31]: Active |
| O=C1O[C@H]([C@@H](O)CO)C(O)=C1O [ASCORBIC ACID] | 12.8 | – | – | – | – | – | – | – | – | – | 0.02 | – | 62.2 | – | – | – | – | 1.4 | – | – | – |
| Oc1cccc(CNc2ccccc2O)c1 | 5.87 | inactive | 17.2 | 6.65 | 11.7 | 5.4 | 45 | 20.3 | 180 | inactive | 1.4 | inactive | 1.24 | 13.1 | inactive | 1.55 | inactive | 3 | 51.1 | 8.2 | inhibition [32]: Active; Activity [2]: Active; Activity [33]: Active; inhibition [5]: Active; Activity [10]: Active; Activity [13]: 117%; Activity [14]: 47%; inhibition [16]: 46%; Activity [25]: 144%; inhibition [26]: Active; Ratio IC50 [34]: 2; inhibition [31]: Active |
| Oc1ccc(CNc2ccccc2O)cc1 | 6.27 | inactive | 11 | 3.7 | 8.37 | 6.8 | 21.8 | 10.1 | 211 | inactive | 1.2 | inactive | 1.38 | 12.8 | inactive | 3.27 | inactive | 2.8 | 47.3 | 4.34 | inhibition [32]: Active; Activity [2]: Active; Activity [33]: Active; inhibition [5]: Active; Activity [10]: Active; Activity [13]: 106%; Activity [14]: 47%; inhibition [16]: Active; Activity [25]: 152%; inhibition [26]: Active; Ratio IC50 [34]: 2; inhibition [31]: Active |
| Oc1ccc(/C=C/c2cc(O)cc(O)c2)cc1 [RESVERATROL] | 17.8 | inactive | 16.1 | 4.25 | 100 | 11.2 | 25.9 | 24.1 | 274 | inactive | – | inactive | 1.7 | 6.7 | inactive | 1.65 | Active | – | 9 | 7.48 | inhibition [32]: inactive; Activity [10]: Active; Activity [13]: 144%; Activity [25]: 239% |
| Oc1c(I)cc(Cl)c2cccnc12 [CLIOQUINOL] | 40.6 | Active | 196 | 112 | 170 | 1.2 | 250 | 310 | 240 | Active | 0.2 | Active | 9.72 | 15.6 | Active | 3.69 | Active | 0.4 | 87.7 | 120 | Activity [21]: Active; logKa [35]: 10 |
| Oc1ccccc1/N=C/c1c(O)ccc2ccccc12 | 38.5 | inactive | 33.7 | 13.9 | 36.2 | 0 | 41.5 | 26.6 | 158 | inactive | 0.1 | inactive | 11.5 | 14 | inactive | 1.91 | inactive | 0.5 | 100 | 22.6 | Activity [2]: Active; inhibition [36]: < 57%; inhibition [5]: Active; inhibition [37]: < 22%; Activity [10]: Active; Activity [13]: 42.8%; Activity [15]: Active; inhibition [16]: 25%; Activity [25]: 66.4%; inhibition [26]: Active; inhibition [31]: Active |
| Oc1ccc(CNc2ccccc2O)cc1O | 3.05 | inactive | 12.1 | 7.49 | 12.8 | 4 | 19.5 | 9.28 | 354 | inactive | 2.8 | inactive | 0.61 | 12.6 | inactive | 3.55 | inactive | 5.8 | 59.9 | 9.17 | Activity [2]: Active; Activity [33]: Active; inhibition [5]: Active; Activity [10]: Active; Activity [13]: 69.7%; Activity [14]: 47%; inhibition [16]: Active; Activity [21]: Active; Activity [25]: 76.5%; inhibition [26]: Active; Ratio IC50 [34]: 2; inhibition [31]: Active |
